Test: mn = molality of the nth substance listed, in mol/kg
Conditions: 100 kPa, Liquid; for kinematic viscosity: Capillary tube (Ostwald / Ubbelohde) method; for mass density: Pycnometric method

[K+].[O]=[V](=[O])[O-] [potassium vanadate] + O
Conditions	kinematic viscosity [m2/s]	mass density [kg/m3]
293.15 K, m1 = 0.615	1.03e-06	1063
303.15 K, m1 = 0.874	8.5e-07	1083
313.15 K, m1 = 1.223	7.51e-07	1126
323.15 K, m1 = 1.884	7.42e-07	1171

— the NIST ThermoML archive (doi:10.1021/acs.jced.9b00449)
